Measured values as given in US10239875B2, “Naphthyridinyl hydrazine derivatives as potent peripheral analgesic agents” (KING SAUD UNIVERSITY, priority 2017, dated 2019).

Test system: Albino mice
Test: mouse writhing test (acetic acid-induced), peripheral analgesic activity
Type: in vivo
Conditions: for No. of writhes/20 min: 30 min before i.p. acetic acid 0.7% 10 mL/kg, mean ± S.E.; for Protection (%) / analgesic activity compared with acetylsalicylic acid / placebo control (in words): writhing test; for Protection (%): versus placebo control mean; for analgesic activity compared with acetylsalicylic acid / placebo control (in words): 20 mg/kg orally vs acetylsalicylic acid 150 mg/kg, Dunnett's test P < 0.05
Experimental: The test compounds synthesized in Examples 2-11 were tested for analgesic activity as follows. Albino mice of both sexes (27-30 g body weight each) were used in the experiments. Mice used in this experiment were obtained from the Animal House Colony at the National Research Centre (NRC), Egypt. All animals were housed under standard conditions of natural 12-hour light and dark cycles with free access to food and water. Animals were allowed to adapt to the laboratory environment for one week before use in experimentation. All animal procedures were first approved by the Ethics Committee of the NRC, Egypt, and were performed in accordance with standard recommendations and guidelines for proper care and use of laboratory animals.
The peripheral analgesic activities of compounds 1 to 10 were determined in mice using the standard writhing test. Seventy-two mice were divided into 12 groups of 6 mice. Mice of the first (placebo control) and last (active control) groups were treated orally (p.o.) with the vehicle (5 mL/kg) or acetyl salicylic acid (150 mg/kg), respectively. Animals of the second to eleventh groups were orally given one of the selected compounds at doses of 20 mg/kg. Once 30 minutes passed after administration of medication, each mouse received an intraperitoneal injection of acetic acid (0.7% aqueous solution) in a dose of 10 mL/kg to induce writhing. The mice were then placed in transparent boxes, and the number of writhes per animal was counted for 20 minutes after acetic acid injection. The “protection %” was calculated using the following equation: Protection (%)=[Control mean−Treated mean/Control mean]×100.

[1] = acetylsalicylic acid 150 mg/kg orally in DW
[2] = test compound 20 mg/kg orally in DMSO

SMILES: CC(=O)Oc1ccccc1C(=O)O [Acetylsalicylic acid, acetylsalicylic acid, reference compound]
- No. of writhes/20 min [1]: 17.4 ± 1.57 writhes/20 min
- Protection (%) [1]: 78.47%

SMILES: Cc1ccc2c(NN=Cc3ccc(N4CCOCC4)cc3)cc(C)nc2n1 [Compound 1]
- No. of writhes/20 min [2]: 24.8 ± 1.02 writhes/20 min
- Protection (%) [2]: 69.31%
- analgesic activity compared with acetylsalicylic acid / placebo control (in words): analgesic activity close to that of acetylsalicylic acid

SMILES: Cc1ccc2c(NN=Cc3ccc(N4CCNCC4)cc3)cc(C)nc2n1 [Compound 2]
- No. of writhes/20 min [2]: 39.6 ± 3.14 writhes/20 min
- Protection (%) [2]: 50.99%

SMILES: Cc1ccc2c(NN=Cc3ccc(N4CCCCC4)cc3)cc(C)nc2n1 [Compound 3]
- No. of writhes/20 min [2]: 36.2 ± 2.58 writhes/20 min
- Protection (%) [2]: 55.20%

SMILES: Cc1ccc2c(NN=Cc3ccc(N4CCN(C)CC4)cc3)cc(C)nc2n1 [Compound 4]
- No. of writhes/20 min [2]: 44.8 ± 2.85 writhes/20 min
- Protection (%) [2]: 44.55%

SMILES: CC(=NNc1cc(C)nc2nc(C)ccc12)c1ccc(N2CCOCC2)cc1 [Compound 5]
- No. of writhes/20 min [2]: 29.2 ± 2.50 writhes/20 min
- Protection (%) [2]: 63.86%

SMILES: CC(=NNc1cc(C)nc2nc(C)ccc12)c1ccc(N2CCNCC2)cc1 [Compound 6]
- No. of writhes/20 min [2]: 26.2 ± 1.32 writhes/20 min
- Protection (%) [2]: 67.57%
- analgesic activity compared with acetylsalicylic acid / placebo control (in words): analgesic activity close to that of acetylsalicylic acid

SMILES: CC(=NNc1cc(C)nc2nc(C)ccc12)c1ccc(N2CCCCC2)cc1 [Compound 7]
- No. of writhes/20 min [2]: 23.6 ± 2.16 writhes/20 min
- Protection (%) [2]: 70.79%
- analgesic activity compared with acetylsalicylic acid / placebo control (in words): analgesic activity close to that of acetylsalicylic acid
